EP0803065B1, “A-PROTEIN AS A DIAGNOSTIC OF CANCER” (THE SCHEPENS EYE RESEARCH INSTITUTE, priority 1995, dated 1996)

Tests used:
[1] = biological target: T1, membrane-bound A-protein (Am), purified from bovine rod outer segments, N-terminus SEQ ID NO:1 (Bos taurus, UniProt P21457); assay: ATPase assay (hydrolysis of [γ-32P]ATP); assay type: biochemical; conditions: double reciprocal plots and regression analysis
T1 sequence (P21457 2-202): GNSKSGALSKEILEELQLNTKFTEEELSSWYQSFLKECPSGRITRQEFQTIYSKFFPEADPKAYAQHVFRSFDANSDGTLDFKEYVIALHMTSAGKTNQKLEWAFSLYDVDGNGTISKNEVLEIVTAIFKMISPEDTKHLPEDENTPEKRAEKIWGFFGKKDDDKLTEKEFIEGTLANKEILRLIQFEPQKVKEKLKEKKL
Description: (§1) GTP (2.8 Ci/mmol) or 88.8 to 177.5 nM [γ-^32P] […] The stripped ROS membranes (containing rhodopsin as the receptor) were prepared by washing ROS membranes 3 times in buffer C(100 mM NaCl, 20 mM Tris-HCl, pH 7.0, 1 mM MgCl2) and 3 times in water containing 0.01% polyoxyethylene 23 lauryl ether (Brij 35™ nonionic detergent, Sigma Chemical Co.). The stripped membranes were resuspended in buffer D (10 mM Tris-HCl, pH 7.0, 0.1 mM EGTA) prior to use.
(§2) Samples were incubated at room temperature for 5 minutes and quenched with 200 µl ice-cold quench buffer ([…] KH2PO4, 6% Norite A, 10% TCA). The samples were kept on ice for 30 minutes and spun down for 5 minutes in a microcentrifuge. 50 µl aliquots of each supernatant were placed in a vial with 5 ml scintillation fluid and assayed for radioactivity. The hydrolysis of [γ-^32P]-GTP was measured in the presence and absence of photolyzed rhodopsin.
Km and Vmax were determined by construction of double reciprocal plots and regression analysis.

transducin (Tα) = transducin (Tα) (Bos taurus, UniProt P04695); assay: GTPase assay, comparison protein; assay type: biochemical; conditions: mol/mol basis, submaximal velocity, in the presence of photoactivated rhodopsin
transducin (Tα), sequence (P04695 2-350 limits assumed): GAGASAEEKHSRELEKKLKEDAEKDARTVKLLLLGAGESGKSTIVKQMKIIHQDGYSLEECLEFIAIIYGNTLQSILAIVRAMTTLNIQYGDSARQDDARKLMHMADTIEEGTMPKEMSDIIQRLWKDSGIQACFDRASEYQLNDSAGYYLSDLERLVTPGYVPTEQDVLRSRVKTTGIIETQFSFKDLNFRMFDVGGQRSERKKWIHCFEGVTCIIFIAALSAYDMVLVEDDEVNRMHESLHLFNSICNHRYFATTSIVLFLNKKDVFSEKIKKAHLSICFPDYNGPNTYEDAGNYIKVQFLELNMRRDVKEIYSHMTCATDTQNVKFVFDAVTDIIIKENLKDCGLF
Description: as §1, §2
The GTPase rates for Am and transducin are additive when the two purified proteins are present in approximately equimolar concentrations.

[2] = biological target: T1, membrane-bound A-protein (Am), purified from bovine rod outer segments, N-terminus SEQ ID NO:1; assay: GTPase assay (hydrolysis of [γ-32P]GTP); assay type: biochemical
Description: as §1, §2
The apparent Michaelis constant was determined for As and Am by measuring the rate of GTP hydrolysis over a thousand-fold range of substrate concentrations. Km and Vmax were determined by construction of double reciprocal plots and regression analysis.

[3] = biological target: T2, soluble A-protein (As), purified from bovine rod outer segments, N-terminus SEQ ID NO:2 (Bos taurus, UniProt P21457); assay: GTP analog binding assay (nitrocellulose filtration); conditions: 30 minutes, no cofactors
T2 sequence (P21457 2-202): T1 sequence (P21457 2-202)
Description: (§3) Assays of the binding of the GTP-analogs Gpp(NH)p and GTPγS (New England Nuclear) by both Am and AS were performed according to the methods of Northup et al. (J. Biol. Chem., 257:11416-11423 (1982)). Binding was carried out in a total volume of 100 µl of solution containing 5 to 10 µg purified A-protein, 15.3 µM 3H-Gpp(NH)p (10 µCi) or 1.32 µM GTPγS^35 (1 µCi) and buffer (100 mM NaCl, 0.1 mM EDTA, 20 mM Tris-HCl, pH 7.0). The samples were vortexed and incubated at 25°C for 30 minutes, quenched with 200 µl ice-cold buffer (0.5 M NaCl, 0.1 M Tris-HCl, 0.1% Tween 80™), and kept on ice for 30 minutes. The samples were placed onto nitrocellulose filters that had been previously washed with 2 ml of the same buffer. The filters were rinsed 5 times with 2 ml ice-cold buffer and assayed for radioactivity.

[4] = biological target: T1, membrane-bound A-protein (Am), purified from bovine rod outer segments, N-terminus SEQ ID NO:1; assay: as above; conditions: 30 minutes, no cofactors
Description: as §3

Nc1ncnc2c1ncn2[C@@H]1O[C@H](COP(=O)(O)OP(=O)(O)OP(=O)(O)O)[C@@H](O)[C@H]1O [ATP, adenosine triphosphate]
Vmax:Am ATPase [1]: 2.90 (±0.16) pmol/mg A-protein min^-1

Nc1nc2c(ncn2[C@@H]2O[C@H](COP(=O)(O)OP(=O)(O)OP(=O)(O)O)[C@@H](O)[C@H]2O)c(=O)[nH]1 [GTP, guanosine triphosphate]
rate of GTP hydrolysis by transducin (transducin (Tα)): 0.512 GTP sec^-1/Tα | Vmax:Am GTPase ([2]; double reciprocal plots and regression analysis): 16.4 nmol/mgAmmin^-1 | rate of GTP hydrolysis by Am ([2]; mol/mol basis, submaximal velocity, in the presence of photoactivated rhodopsin): 0.458 GTP sec^-1/Am

Nc1nc2c(ncn2[C@@H]2O[C@H](COP(=O)(O)OP(=O)(O)OP(O)(O)=S)[C@@H](O)[C@H]2O)c(=O)[nH]1 [GTPγS]
GTPγS bound by As ([3]; 1.32 µM GTPγS35, 25°C): 0.47 mol GTP Analog/mol Protein | GTPγS bound by Am ([4]; 1.32 µM GTPγS35, 25°C): 0.93 mol GTP Analog/mol Protein

Nc1nc2c(ncn2[C@@H]2O[C@H](COP(=O)(O)OP(=O)(O)NP(=O)(O)O)[C@@H](O)[C@H]2O)c(=O)[nH]1 [Gpp(NH)p]
Gpp(NH)p bound by As ([3]; 15.3 µM 3H-Gpp(NH)p, 25°C): 0.29 ± 0.08 mol GTP Analog/mol Protein | Gpp(NH)p bound by Am ([4]; 15.3 µM 3H-Gpp(NH)p, 25°C): 0.57 ± 0.12 mol GTP Analog/mol Protein
